Measurements: US20240092739A1, “COMPOUNDS AND METHODS OF USE” (Ferro Therapeutics, Inc, priority 2020, published 2024)
Where two headings read alike, the source gives them in different places.

How the values were obtained:
[1] = test system: 786-O (renal cell carcinoma) cells; assay: Cell proliferation (Alamar Blue) assay, 786-O cells; type: cell-based; settings: Homo sapiens, 786-0, 786-O cells, Alamar Blue
In short: (§1)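 Cells seeded at 5000/well, incubated 16–24 h, then treated 24 h at 37°C with 10–0.0005 μM compound (3-fold dilutions, 1% DMSO). Alamar Blue added for 1.5 h, fluorescence read at 540/590 nm; IC50 from variable-slope sigmoidal fit.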

[2] = test system: SJSA-1 (osteosarcoma) cells; assay: Cell proliferation (Alamar Blue) assay, SJSA-1 cells; type: cell-based; settings: Homo sapiens, 24 h compound treatment
Experimental: Cell viability assay was performed to assess the potency of the compounds in human cancer cell lines 786-0 (renal cell carcinoma) and SJSA-1 (osteosarcoma). Additional cell lines, such as pancreatic cancer cell lines (Panc 02.13, BxPC-3, Panc 12, Panc 02.03, Panc 6.03, PSN-1, HPAC, and Capan-1), prostate cancer cell lines (PC-3, DU145, […], NCI-H660, 1PH1 LNCaP, BM-1604, and MDA PCa 2b), etc., can be tested in a similar method.
(§2) Cells (SJSA-1, 786-0 and A431) were seeded (5000 cells/100 μL/well) in 96-well tissue culture plate and incubated at 37° C./500 CO2 for 16-24 hours. The cells were then treated with compounds (25 μL of 5×). The compound concentrations were 10-0.0005 μM prepared in 3-fold serial dilutions with final DMSO concentration of 1%. The plates were then incubated for 24 h at 37° C./[…] in a moist environment. Then Alamar Blue™ reagent (final concentration 1×-12.5 μL) was added to each well and incubated for 1.5 hours at 37° C./500 CO2. The plates were read on fluorescence reader at 540 nm excitation and 590 nm emission wavelengths. The IC50 values were subsequently determined using a sigmoidal dose-response curve (variable slope) in GraphPad Prism® 5 software. Tables A-3 and B-11 show cell proliferation data for exemplary compounds as described herein.

[3] = test system: A431 cells; assay: Cell proliferation (Alamar Blue) assay, A431 cells; type: cell-based; settings: Homo sapiens, A-431, A431 cells, Alamar Blue
In short: as §1

[4] = test system: 786-O cells + Ferrastatin-1; assay: GPX4 inhibition assay: cell proliferation (Alamar Blue) in 786-O cells with ferrostatin rescue; type: cell-based, human
Experimental: as §2
Studies have shown that lipophilic antioxidants, such as ferrostatin, can rescue cells from GPX4 inhibition-induced ferroptosis. For instance, mesenchymal state GPX4-knockout cells can survive in the presence of ferrostatin, however, when the supply of ferrostatin is terminated, these cells undergo ferroptosis (see, e.g., Viswanathan et al., Nature 547:453-7, 2017). […] Accordingly, the ability of a molecule to induce ferroptotic cancer cell death, and that such ability is admonished by the addition of ferrostatin, is clear indication that the molecule is an GPX4 inhibitor. Cell proliferation data for exemplary compounds with and without ferrostatin can be seen in Table A-3.

[5] = 24 h compound treatment, read-out: IC50 (μM) 786-O
[6] = 24 h compound treatment, read-out: IC50 (μM) A431
[7] = 786-O cells in presence of Ferrastatin-1 (rescue), read-out: IC50 (μM) 786-O + Ferrastatin-1

Row | SMILES | IC50 [1, 5] [µM] | IC50 [2] [µM] | IC50 [3, 6] [µM] | IC50 [4, 7] [µM] | IC50 ([1]; 24 h compound incubation, read-out: Cell proliferation IC50 (μM) 786-O) [µM] | IC50 ([3]; 24 h compound incubation, read-out: Cell proliferation IC50 (μM) A431) [µM] | IC50 ([4]; 786-O cells with Ferrastatin-1 (rescue), read-out: Cell proliferation IC50 (μM) 786-O + Ferrastatin-1) [µM]
1 | C#CC(=O)N1[C@@H](CCCC)Cc2cc(OC)ccc2[C@@H]1c1ccc(NC(=O)C2CCC2)cc1 [Compound B-20, N-{4-[(1S,3S)-3-butyl-6-methoxy-2-(prop-2-ynoyl)-1,2,3,4-tetrahydroisoquinolin-1-yl]phenyl}cyclobutanecarboxamide] | 0.02 | 0.021 | 6.14 | – | – | – | –
2 | C#CC(=O)N1[C@@H](CCCC)Cc2cc(OC)ccc2[C@H]1c1ccc(NC(=O)C2CCC2)cc1 [Compound B-19, N-(4-((1R,3S)-3-butyl-6-methoxy-2-propioloyl-1,2,3,4-tetrahydroisoquinolin-1-yl)phenyl) cyclobutane carboxamide] | 0.569 | 0.52 | 6.3 | – | – | – | –
3 | C#CC(=O)N1[C@@H](CCCC)Cc2cc(OC)ccc2[C@@H]1c1ccc(NC(=O)c2ccnc(C)c2)cc1 [Compound B-49, N-(4-((1S,3S)-3-butyl-6-methoxy-2-propioloyl-1,2,3,4-tetrahydroisoquinolin-1-yl)phenyl)-2-methylisonicotinamide] | 0.037 | 0.2 | – | – | – | – | –
4 | CCCC[C@H]1Cc2cc(OC)ccc2[C@H](c2ccc(N3CCC(F)(F)C3)cc2)N1C(=O)C#C[Si](C)(C)C [Compound A-12, 1-((1S,3S)-3-butyl-1-(4-(3,3-difluoropyrrolidin-1-yl)phenyl)-6-methoxy-3,4-dihydroisoquinolin-2(1H)-yl)-3-(trimethylsilyl)prop-2-yn-1-one] | – | – | – | – | 0.051 | > 1 | > 1
5 | C#CC(=O)N1[C@@H](CCCC)Cc2cc(OC)ccc2[C@@H]1c1ccc(NC2CCC2)cc1 [Compound B-22, 1-((1S,3S)-3-butyl-1-(4-(cyclobutylamino)phenyl)-6-methoxy-3,4-dihydroisoquinolin-2(1H)-yl)prop-2-yn-1-one] | 0.041 | 0.05 | 9.96 | – | – | – | –
6 | C#CC(=O)N1[C@@H](CCCC)Cc2cc(C(F)F)ccc2[C@@H]1c1ccc(NC23CC4CC(CC(C4)C2)C3)cc1 [Compound B-63] | 0.009 | – | 0.727 | 0.939 | – | – | –
7 | C#CC(=O)N1[C@@H](CCCC)Cc2cc(CO)ccc2[C@@H]1c1ccc(NC23CC4CC(CC(C4)C2)C3)cc1 [Compound B-62] | 0.005 | – | 2.43 | 7.15 | – | – | –

Now from value to compound, other results behind:

Row | IC50 [1, 5] [µM] | IC50 [2] [µM] | IC50 [3, 6] [µM] | IC50 [4, 7] [µM] | SMILES | IC50 ([1]; 24 h compound incubation, read-out: Cell proliferation IC50 (μM) 786-O) [µM] | IC50 ([3]; 24 h compound incubation, read-out: Cell proliferation IC50 (μM) A431) [µM] | IC50 ([4]; 786-O cells with Ferrastatin-1 (rescue), read-out: Cell proliferation IC50 (μM) 786-O + Ferrastatin-1) [µM]
8 | ≥ 10 | – | ≥ 10 | ≥ 10 | C#CC(=O)N1[C@@H](CCCC)Cc2cc(OCc3cn(CCOCCOCCOCCNC(=O)CCCC[C@@H]4SC[C@@H]5NC(=O)N[C@@H]54)nn3)ccc2[C@@H]1c1ccc(NC23CC4CC(CC(C4)C2)C3)cc1 [Compound B-65] | – | – | –
9 | 2.79 | – | 7.87 | 6.59 | C#CC(=O)N1[C@@H](CCCC)Cc2cc(OC)ccc2[C@@H]1c1ccc(NC23CC4CC(CC(C4)C2)C3)cc1F [Compound B-83] | – | – | –
10 | 0.01 | – | 4.9 | ≥ 10 | C#CC(=O)N1[C@@H](CCCC)Cc2cc(OC)ccc2[C@H]1c1ccc(NC23CC4CC(CC(C4)C2)C3)c(C#N)c1 [Compound B-81] | – | – | –
11 | 0.004 | – | 0.569 | 0.662 | C#CC(=O)N1[C@@H](CCCC)Cc2cc(C#N)ccc2[C@@H]1c1ccc(NC23CC4CC(CC(C4)C2)C3)cc1 [Compound B-78] | – | – | –
